Measured values published in patent publication US6069150A, “Use of derivatives of tetrahydro-beta-carbolines as antimetastatic agents” (F. Hoffman-La Roche AG, priority 1996, dated 2000).
Read-outs that look alike come from different tables or passages of the source.

Experiments:
[1] = biological target: T1, MMP8 (human neutrophil collagenase) (Homo sapiens, UniProt P22894); experiment: in vitro test of inhibition of MMP8 (human neutrophil collagenase), fluorescent substrate degradation by catalytic domain of MMP8; type: biochemical; details: for inhibition at 0.1 µg/mL: conc. 0.1 μg/ml
T1 construct: by means of the catalytic domain of MMP8
Text: The compounds of the present invention have been tested in a pharmacological "in vitro" test of inhibition of MMP8 (human neutrophil collagenase). Said test provides for the determination via fluorescence of the inhibition of the degradation of a fluorescent substrate (DNP-Pro-Leu-Gly-Leu-Trp-Ala-D-Arg-NH2, M1855 Bachem) by means of the catalytic domain of MMP8.
1) DNP-substrate=DNP-Pro-Leu-Gly-Leu-Trp-Ala-D-Arg-NH2 (M1855 Bachem), M.W. 977.1 g/mol, concentration 25 (μM in DMSO; 2) measurement buffer=50 mM TRIS/100 mM NaCl/10 mM CaCl2.2H2 O, adjusted at pH 7.6 with hydrochloric acid. 3) Enzyme=catalytic domain of MMP8 (92 Kda), concentration 0.055 mg/ml in TRIS buffer. Substrate and enzyme are maintained at 0° C. with ice bath.
Total volume=1 ml of solution kept under stirring in a cuvette.
0.01 ml of inhibitor (10 (g/ml).
It is measured the fluorescence at 346 nm both of the control solution (without inhibitor) and of the solution containing the inhibitor. The inhibition of the catalytic activity of MMP8 results in the decrease in the DNP-substrate lysis, with related decrease in the fluorescence of the solution.
The percentage of inhibition is expressed by the following formula:
% Inhibition=100-(rel. unit/timewith inhibitor /rel.
By repeating the experiment at different concentrations of inhibitor it is possible to determine the IC50 value.

[2] = test system: human fibrosarcoma HT1080 cells; experiment: test of chemoinvasion (HT1080 cells through Type IV collagen coated Transwell filters); type: cell-based
Experimental: The compounds of the present invention have also shown activity in an "[…]" test of chemoinvasion. In the test of chemoinvasion the Costar Transwell chambers for cell culture (diameter: 6.5 mm; pore size: 8 μm) are coated with 100 μl of Type IV collagen (diluted solution 50 μg/ml, then evaporation overnight). With the same procedure the chambers are coated with a second layer of Type IV collagen (100 μl of solution at concentration 50 μg/ml). Before use, the chambers are rinsed twice with sterile water and incubated for about 1 hour at 37° C. in a serum-free medium (DMEM).
The human fibrosarcoma HT1080 cells are harvested by trypsin-EDTA treatment, washed with DMEM+10% FCS and incubated for at least 30 minutes at 37° C. in the same medium. The cells are then washed with serum-free DMEM and resuspended in serum-free DMEM added with 0.1% BSA (fraction V), counted and diluted to obtain a final density of 3×10^5 cell/ml. […]
Incubated filters are then washed with PBS, the cells are fixed 15 min in 4% paraformaldehyde, permeabilized in methanol (10 minutes, -20° C.) and stained with May-Grunwald-Giemsa. Cells which adhere to the top of the filters are removed with a cotton swab, filters are detached from the bottom of the chambers and analyzed with microscope to determine the number of cells on the lower side of the filters. […]

[3] = MMP8 catalytic domain, DNP-substrate, fluorescence at 346 nm, read-out: IC50 (converted)

T1 sequence (P22894 100-262 limits assumed): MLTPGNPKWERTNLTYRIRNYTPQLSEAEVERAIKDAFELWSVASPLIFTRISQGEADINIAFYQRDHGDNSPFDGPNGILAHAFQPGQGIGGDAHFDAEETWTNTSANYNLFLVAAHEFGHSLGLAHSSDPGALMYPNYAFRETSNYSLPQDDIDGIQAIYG

O=C(O)C1Cc2c([nH]c3ccccc23)CN1 (centres unmarked) [1,2,3,4-tetrahydronorharman-3-carboxylic acid]
IC50 [1, 3]: 324 nM
inhibition at 0.1 µg/mL [1]: 100%

COc1ccc2[nH]c3c(c2c1)CCNC3C(=O)O (centres unmarked) [6-methoxy-1,2,3,4-tetrahydronorharman-1-carboxylic acid]
IC50 [1, 3]: 203 nM
inhibition at 10 µg/mL ([1]; conc. 10 μg/ml): 100%
IC50 ([2]; HT-1080, 24 h + 24 h): 200 nM
inhibition at 0.1 µM ([2]; HT-1080, conc. 10^-7 M, 24 h + 24 h): 56.5%

COc1ccc2[nH]c3c(c2c1)CCNC3 [6-methoxy-1,2,3,4-tetrahydronorharmane]
IC50 [1]: 297 nM
inhibition at 0.1 µg/mL [1]: 100%
